Reference: ChEMBL document CHEMBL1136540, “Discovery of selective phosphonamide-based inhibitors of tumor necrosis factor-alpha converting enzyme (TACE)” (Bioorg Med Chem Lett, 2003)

Legend:
[1] = biological target: T1, Disintegrin and metalloproteinase domain-containing protein 17 (Homo sapiens, UniProt P78536); assay: Inhibition of recombinant human tumor necrosis factor-alpha converting enzyme
Stromelysin-1 [2] = biological target: T2, Stromelysin-1 (Homo sapiens, UniProt P08254); assay: Inhibition of recombinant human Matrix metalloprotease-3
Target sequence in this assay (P08254 whole entry): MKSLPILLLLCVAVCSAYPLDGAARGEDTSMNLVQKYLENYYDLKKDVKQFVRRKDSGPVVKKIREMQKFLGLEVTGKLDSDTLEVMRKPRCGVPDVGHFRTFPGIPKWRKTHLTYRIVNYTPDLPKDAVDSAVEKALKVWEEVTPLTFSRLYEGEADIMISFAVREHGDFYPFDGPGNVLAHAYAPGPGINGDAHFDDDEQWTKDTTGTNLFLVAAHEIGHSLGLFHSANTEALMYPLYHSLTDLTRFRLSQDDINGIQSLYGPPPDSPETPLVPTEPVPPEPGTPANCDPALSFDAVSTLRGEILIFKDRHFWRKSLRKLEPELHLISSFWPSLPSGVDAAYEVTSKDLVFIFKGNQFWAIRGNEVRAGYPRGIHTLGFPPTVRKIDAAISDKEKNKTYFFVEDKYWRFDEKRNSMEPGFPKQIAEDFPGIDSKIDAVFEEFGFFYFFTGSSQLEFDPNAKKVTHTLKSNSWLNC

[3] = biological target: T3, Matrix metalloproteinase-9 (Homo sapiens, UniProt P14780); assay: Inhibition of recombinant human Matrix metalloprotease-9
Interstitial collagenase [4] = biological target: T4, Interstitial collagenase (Homo sapiens, UniProt P03956); assay: Inhibition of recombinant human matrix metalloprotease-1
T4 sequence (P03956 whole entry): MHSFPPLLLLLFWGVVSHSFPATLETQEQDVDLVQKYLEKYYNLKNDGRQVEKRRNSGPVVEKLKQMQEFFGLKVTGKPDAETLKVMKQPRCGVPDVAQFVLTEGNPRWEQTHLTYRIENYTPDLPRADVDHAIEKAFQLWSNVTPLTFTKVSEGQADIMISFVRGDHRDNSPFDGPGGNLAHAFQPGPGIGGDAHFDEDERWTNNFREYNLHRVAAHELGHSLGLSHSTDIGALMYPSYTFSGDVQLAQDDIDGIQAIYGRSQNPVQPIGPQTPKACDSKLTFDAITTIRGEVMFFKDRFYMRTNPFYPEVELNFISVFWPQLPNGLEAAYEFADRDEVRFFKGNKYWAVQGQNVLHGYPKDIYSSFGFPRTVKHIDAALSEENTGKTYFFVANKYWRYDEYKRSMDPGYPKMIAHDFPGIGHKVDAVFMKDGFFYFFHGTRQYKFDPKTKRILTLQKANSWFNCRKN

[5] = biological target: T5, Interstitial collagenase (Homo sapiens) (UniProt P03956); assay: Inhibition of recombinant human Matrix metalloprotease-1 at 1000 nM
T5 sequence (whole entry): T4 sequence (P03956 whole entry)

[6] = biological target: T3, Matrix metalloproteinase-9; conditions: 1000 nM
Description: Inhibition of recombinant human Matrix metalloprotease-9 at 1000 nM

[7] = biological target: T1, Disintegrin and metalloproteinase domain-containing protein 17; conditions: 1000 nM
Description: Inhibition of recombinant human TACE at 1000 nM

Stromelysin-1 [8] = biological target: T2, Stromelysin-1; assay: Inhibition of recombinant human Matrix metalloprotease-3 at 1000 nM
Target sequence in this assay (P08254 100-477 limits assumed): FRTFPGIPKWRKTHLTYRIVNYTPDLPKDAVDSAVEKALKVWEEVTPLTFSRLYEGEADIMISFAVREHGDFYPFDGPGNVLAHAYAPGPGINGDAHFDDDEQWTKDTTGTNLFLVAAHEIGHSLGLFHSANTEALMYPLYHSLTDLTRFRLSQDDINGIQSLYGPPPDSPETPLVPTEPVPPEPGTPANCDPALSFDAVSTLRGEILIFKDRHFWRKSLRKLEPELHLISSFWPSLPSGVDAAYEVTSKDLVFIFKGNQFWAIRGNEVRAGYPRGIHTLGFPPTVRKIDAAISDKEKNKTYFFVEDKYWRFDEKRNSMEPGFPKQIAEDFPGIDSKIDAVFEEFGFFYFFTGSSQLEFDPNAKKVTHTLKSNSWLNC

[9] = biological target: T5, Interstitial collagenase (Homo sapiens); assay: Inhibition of recombinant human matrix metalloprotease-1 at 1000 nM
Interstitial collagenase [10] = biological target: T4, Interstitial collagenase; assay: Inhibition of recombinant human Matrix metalloprotease-1

T3 sequence (P14780 whole entry): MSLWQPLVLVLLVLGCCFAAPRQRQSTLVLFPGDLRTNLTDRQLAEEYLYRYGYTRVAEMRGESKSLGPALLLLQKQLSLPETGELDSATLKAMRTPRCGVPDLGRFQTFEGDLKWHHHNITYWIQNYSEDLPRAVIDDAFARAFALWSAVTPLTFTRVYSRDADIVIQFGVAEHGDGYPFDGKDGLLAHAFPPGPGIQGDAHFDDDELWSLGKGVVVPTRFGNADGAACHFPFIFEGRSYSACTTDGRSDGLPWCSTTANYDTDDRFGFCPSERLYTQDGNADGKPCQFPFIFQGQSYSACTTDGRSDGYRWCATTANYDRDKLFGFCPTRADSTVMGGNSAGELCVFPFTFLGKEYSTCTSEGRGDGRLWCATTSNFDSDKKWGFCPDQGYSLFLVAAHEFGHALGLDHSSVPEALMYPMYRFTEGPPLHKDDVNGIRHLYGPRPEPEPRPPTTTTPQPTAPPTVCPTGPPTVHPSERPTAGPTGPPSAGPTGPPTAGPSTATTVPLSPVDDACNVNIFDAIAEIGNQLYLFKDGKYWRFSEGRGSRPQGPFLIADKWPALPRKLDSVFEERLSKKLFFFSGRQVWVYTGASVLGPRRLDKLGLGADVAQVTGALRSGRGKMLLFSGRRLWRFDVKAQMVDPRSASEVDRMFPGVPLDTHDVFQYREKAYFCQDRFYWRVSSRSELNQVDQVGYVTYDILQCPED
T1 sequence (P78536 whole entry, the tested form may be a part): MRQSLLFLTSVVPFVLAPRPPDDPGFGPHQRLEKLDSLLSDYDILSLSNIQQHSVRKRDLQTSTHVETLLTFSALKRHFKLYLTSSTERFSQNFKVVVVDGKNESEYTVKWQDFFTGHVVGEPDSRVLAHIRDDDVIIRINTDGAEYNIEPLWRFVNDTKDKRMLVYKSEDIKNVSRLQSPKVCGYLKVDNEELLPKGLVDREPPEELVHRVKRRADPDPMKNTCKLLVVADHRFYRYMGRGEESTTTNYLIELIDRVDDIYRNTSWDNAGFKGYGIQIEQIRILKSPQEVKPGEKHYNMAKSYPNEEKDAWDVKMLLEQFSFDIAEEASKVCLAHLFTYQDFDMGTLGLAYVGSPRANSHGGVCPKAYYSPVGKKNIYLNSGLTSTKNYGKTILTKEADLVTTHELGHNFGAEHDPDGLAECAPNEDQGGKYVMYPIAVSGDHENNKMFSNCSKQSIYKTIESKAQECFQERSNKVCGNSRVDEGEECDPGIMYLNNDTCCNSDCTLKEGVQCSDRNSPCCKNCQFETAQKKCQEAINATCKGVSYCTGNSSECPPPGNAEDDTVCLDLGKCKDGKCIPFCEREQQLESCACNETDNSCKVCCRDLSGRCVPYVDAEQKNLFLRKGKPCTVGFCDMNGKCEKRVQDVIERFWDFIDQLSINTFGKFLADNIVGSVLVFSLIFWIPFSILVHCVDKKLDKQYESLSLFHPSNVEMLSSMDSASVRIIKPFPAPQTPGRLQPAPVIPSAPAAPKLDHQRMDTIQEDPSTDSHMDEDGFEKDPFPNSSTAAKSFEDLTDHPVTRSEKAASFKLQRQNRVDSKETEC

CCOP(=O)(c1ccc(OC)cc1)N1Cc2ccccc2C[C@@H]1C(=O)NO (single isomer, unassigned)
Ki [1]: 7.15 nM

CCOP(=O)(N[C@H](CCC(=O)NCCc1ccccc1)C(=O)NO)c1ccc(OC)cc1 (stereo partly specified)
Ki (Stromelysin-1 [2]): 7.29 nM | Ki [3]: 23.7 nM | Ki (Interstitial collagenase [4]): 40.4 nM | Ki [1]: 27.6 nM

CCOP(=O)(c1ccc(OC)cc1)N1Cc2ccccc2C[C@H]1C(=O)NO (single isomer, unassigned)
inhibition [5]: 26% | inhibition [6]: 18% | inhibition [7]: 41% | inhibition (Stromelysin-1 [8]): 9%

CCOP(=O)(N[C@@H](CC(C)C)C(=O)NO)c1ccc(OC)cc1 (stereo partly specified)
inhibition [9]: 10% | inhibition [6]: 17% | Ki [1]: 76.4 nM | inhibition (Stromelysin-1 [8]): 17%

CCOP(=O)(N[C@H](CC(C)C)C(=O)NO)c1ccc(OC)cc1 (stereo partly specified)
Ki (Interstitial collagenase [10]): 196 nM | Ki (Stromelysin-1 [2]): 69.8 nM | Ki [3]: 165 nM | Ki [1]: 5.06 nM

CCOP(=O)(N[C@@H](CCC(=O)NCCc1ccccc1)C(=O)NO)c1ccc(OC)cc1 (stereo partly specified)
inhibition [9]: 27% | inhibition [6]: 24% | Ki [1]: 10 nM | inhibition (Stromelysin-1 [8]): 47%
